From article PMC12649549, “Sequence Permutation Generated Lysine and Tryptophan-Rich Antimicrobial Peptides with Enhanced Therapeutic Index” (Antibiotics, 2025)
Read-outs that look alike come from different tables or passages of the source.

Experiments:
S. aureus ATCC 33593 = test system: S. aureus ATCC 33593
Procedure: (§1) The antibacterial and salt-resistant activity of the peptides was tested using Escherichia coli (ATCC 25922), Pseudomonas aeruginosa Migula (ATCC 27853), Acinetobacter sp. (BCRC number 14B0091, BCRC number 14B0097, and BCRC number 14B0100), and Staphylococcus aureus sp. strains (ATCC 25923, ATCC 33591, ATCC 33592, ATCC 33593, and ATCC 6538). All bacteria were obtained from the Food Industry Research and Development Institute (Hsinchu, Taiwan) and cultured in sterilized Müller-Hinton (MH) broth at 37 °C and 200 rpm for 8 h. The inoculum concentrations were determined by measuring the optical density at 600 nm (OD 600 = 1, approximately 10^8 CFU/mL) using an Ultrospec 2100 pro UV-Visible spectrophotometer (Biochrom Ltd., Cambridge, UK) after 8 h of culture.
(§2) The antibacterial activities of the peptides in Müller-Hinton (MH) broth and modified LYM broth were determined using the standard broth microdilution method as per Clinical and Laboratory Standards Institute (CLSI) guidelines. The LYM broth was prepared with specific components and adjusted to different conditions, including varying concentrations of NaCl and MgCl2, and different pH levels. To prepare the LYM broth, 5.4 mM KCl, 5.6 mM Na2HPO4, 0.5 mM MgSO4, and 1.0 mM sodium citrate were added. Additionally, 0.4 mg of ZnCl2, 2.0 mg of FeCl3·6H2O, 0.1 mg of CuSO4·5H2O, 0.1 mg of MnSO4·H2O, 0.1 mg of Na2B4O7∙10H2O, 700 mg of amino acid mixtures without tryptophan (Takara Bio Inc., San Jose, CA, USA), and 20 mg of L-tryptophan were added per liter of medium. The pH was adjusted to 7.4, and a vitamin mixture (100X, Sigma) and glucose concentration of 2% were added. For different conditions of LYM broth, NaCl concentrations of 300, 200, 150, and 50 mM, MgCl2 concentrations of 2.5, 1.5, and 0.5 mM, and pH levels of 6.5, 5.5, and 4.5 were adjusted. Bacterial strains were incubated in MH broth overnight, regrown, and diluted to a final concentration of 5 × 10^5 CFU/mL. Peptides were added to each well at final concentrations of 50, 25, 12.5, 6.25, 3.13, 1.56, and 0.78 µg/mL, and 99 µL of diluted microbes was loaded into each well of a polypropylene 96-well plate. […] The Morpheus HeatMap software (https://software.broadinstitute.org/morpheus/) was used to display MIC values on a color scale. All experiments were independently repeated three times.

[1] = test system: A. baumannii 14B00100 (Acinetobacter sp., BCRC number 14B0100)
Procedure: as §1, §2

[2] = test system: Both Gram-positive and -negative bacteria; assay: Geometric mean MIC, therapeutic index and fold changes of MIC, whole panel of strains; assay type: cell-based; conditions: for GM G−/+ (geometric mean of the MIC values): Both Gram-positive and -negative bacteria, MH broth, MIC >50 µg/mL counted as 100 µg/mL; for Therapeutic Index (TI) G−/+: HC10/GM, both Gram-positive and -negative bacteria
Procedure: (§3) In this study, we aimed to investigate the potential of W5K series peptides for therapeutic use. To evaluate their efficacy for antibacterial therapy, we used the Therapeutic Index (TI) as a measure of their cell selectivity. The TI was calculated as the ratio of the concentration causing 10% hemolysis of human red blood cells (HC10) to the geometric mean minimum inhibitory concentration (GM) of the peptides against both Gram-negative and Gram-positive bacteria. This parameter was used to quantitatively assess the balance between antibacterial potency and cytotoxicity among the W5K derivatives.
as §2

Gram-negative bacteria = assay: Geometric mean MIC and therapeutic index, Gram-negative bacteria; assay type: cell-based; conditions: Gram-negative bacteria; for GM G− (geometric mean of the MIC values): MH broth, MIC >50 µg/mL counted as 100 µg/mL; for Therapeutic Index (TI) G−: HC10/GM
Procedure: as §3, §2

S. aureus ATCC 33592 = test system: S. aureus ATCC 33592
Procedure: as §1
as §2, with “For different conditions of LYM broth, NaCl concentrations of 300, 200, 150, and 50 mM, MgCl2 concentrations of 2.5, 1.5, and 0.5 mM, and pH levels of 6.5, 5.5, and 4.5 were adjusted.” left out

Gram-positive bacteria = assay: Geometric mean MIC and therapeutic index, Gram-positive bacteria; assay type: cell-based; conditions: Gram-positive bacteria; for GM G+ (geometric mean of the MIC values): MH broth, MIC >50 µg/mL counted as 100 µg/mL; for Therapeutic Index (TI) G+: HC10/GM
Procedure: as §3, §2

[3] = LYM broth, 0 mM NaCl, 16 h, 37 °C
[4] = LYM broth, 50 mM NaCl, 16 h, 37 °C
[5] = LYM broth, 100 mM NaCl, 16 h, 37 °C
[6] = LYM broth, 200 mM (NaCl), 16 h, 37 °C
[7] = LYM broth, 300 mM (NaCl), 16 h, 37 °C
[8] = MH broth, 5 × 10^5 CFU/mL, 16 h, 37 °C, repeated three times

Substance: Ac-KWLAKKKKWRKWL-NH2 [Peptide W5K07]
- MIC (S. aureus ATCC 33593; [3]): 25 µg/mL
- MIC (S. aureus ATCC 33593; LYM broth, 0.5 mM MgCl2): 25 µg/mL
- MIC (S. aureus ATCC 33593; LYM broth, 1.5 mM MgCl2): 25 µg/mL
- MIC (S. aureus ATCC 33593; LYM broth, 2.5 mM MgCl2): 25 µg/mL
- MIC (S. aureus ATCC 33593; [4]): 25 µg/mL
- MIC (S. aureus ATCC 33593; [5]): 50 µg/mL
- MIC (S. aureus ATCC 33593; [6]): 50 µg/mL
- MIC (S. aureus ATCC 33593; [7]): >50 µg/mL
- MIC (S. aureus ATCC 33593; LYM broth, pH 4.5): 25 µg/mL
- MIC (S. aureus ATCC 33593; LYM broth, pH 5.5): 12.5 µg/mL
- MIC (S. aureus ATCC 33593; LYM broth, pH 6.5): 12.5 µg/mL
- MIC (S. aureus ATCC 33593; [8]): >50 µg/mL
- MIC [1, 3]: 3.13 µg/mL
- MIC ([1]; LYM broth, 0.5 mM MgCl2): 3.13 µg/mL
- MIC ([1]; LYM broth, 1.5 mM MgCl2): 3.13 µg/mL
- MIC ([1]; LYM broth, 2.5 mM MgCl2): 3.13 µg/mL
- MIC [1, 4]: 6.25 µg/mL
- MIC [1, 5]: 6.25 µg/mL
- MIC [1, 6]: 25 µg/mL
- MIC [1, 7]: 50 µg/mL
- MIC ([1]; LYM broth, pH 4.5): 3.13 µg/mL
- MIC ([1]; LYM broth, pH 5.5): 3.13 µg/mL
- MIC ([1]; LYM broth, pH 6.5): 3.13 µg/mL
- MIC [1, 8]: 12.5 µg/mL
- GM G−/+ (geometric mean of the MIC values) [2]: 43.5 µg/mL
- Therapeutic Index (TI) G−/+ [2]: 2.5
- GM G− (geometric mean of the MIC values) (Gram-negative bacteria): 21.8 µg/mL
- Therapeutic Index (TI) G− (Gram-negative bacteria): 5.0
- MIC (S. aureus ATCC 33592; [3]): 25 µg/mL
- MIC (S. aureus ATCC 33592; LYM broth, 0.5 mM MgCl2): 25 µg/mL
- MIC (S. aureus ATCC 33592; LYM broth, 1.5 mM MgCl2): 25 µg/mL
- MIC (S. aureus ATCC 33592; LYM broth, 2.5 mM MgCl2): 25 µg/mL
- MIC (S. aureus ATCC 33592; [4]): 25 µg/mL
- MIC (S. aureus ATCC 33592; [5]): 50 µg/mL
- MIC (S. aureus ATCC 33592; [6]): >50 µg/mL
- MIC (S. aureus ATCC 33592; [7]): >50 µg/mL
- MIC (S. aureus ATCC 33592; LYM broth, pH 4.5): 25 µg/mL
- MIC (S. aureus ATCC 33592; LYM broth, pH 5.5): 25 µg/mL
- MIC (S. aureus ATCC 33592; LYM broth, pH 6.5): 12.5 µg/mL
- MIC (S. aureus ATCC 33592; [8]): >50 µg/mL
- GM G+ (geometric mean of the MIC values) (Gram-positive bacteria): 87.1 µg/mL
- Therapeutic Index (TI) G+ (Gram-positive bacteria): 1.2

Substance: Ac-KWLKWLAKKKKWR-NH2 [Peptide W5K04]
- MIC (S. aureus ATCC 33593; [3]): 25 µg/mL
- MIC (S. aureus ATCC 33593; LYM broth, 0.5 mM MgCl2): 25 µg/mL
- MIC (S. aureus ATCC 33593; LYM broth, 1.5 mM MgCl2): 25 µg/mL
- MIC (S. aureus ATCC 33593; LYM broth, 2.5 mM MgCl2): 25 µg/mL
- MIC (S. aureus ATCC 33593; [4]): 25 µg/mL
- MIC (S. aureus ATCC 33593; [5]): 50 µg/mL
- MIC (S. aureus ATCC 33593; [6]): >50 µg/mL
- MIC (S. aureus ATCC 33593; [7]): >50 µg/mL
- MIC (S. aureus ATCC 33593; LYM broth, pH 4.5): 25 µg/mL
- MIC (S. aureus ATCC 33593; LYM broth, pH 5.5): 25 µg/mL
- MIC (S. aureus ATCC 33593; LYM broth, pH 6.5): 25 µg/mL
- MIC (S. aureus ATCC 33593; [8]): >50 µg/mL
- MIC [1, 3]: 1.56 µg/mL
- MIC ([1]; LYM broth, 0.5 mM MgCl2): 1.56 µg/mL
- MIC ([1]; LYM broth, 1.5 mM MgCl2): 3.13 µg/mL
- MIC ([1]; LYM broth, 2.5 mM MgCl2): 3.13 µg/mL
- MIC [1, 4]: 1.56 µg/mL
- MIC [1, 5]: 3.13 µg/mL
- MIC [1, 6]: 12.5 µg/mL
- MIC [1, 7]: 25 µg/mL
- MIC ([1]; LYM broth, pH 4.5): 1.56 µg/mL
- MIC ([1]; LYM broth, pH 5.5): 1.56 µg/mL
- MIC ([1]; LYM broth, pH 6.5): 1.56 µg/mL
- MIC [1, 8]: 12.5 µg/mL
- GM G−/+ (geometric mean of the MIC values) [2]: 35.4 µg/mL
- Therapeutic Index (TI) G−/+ [2]: 3.1
- GM G− (geometric mean of the MIC values) (Gram-negative bacteria): 18.9 µg/mL
- Therapeutic Index (TI) G− (Gram-negative bacteria): 5.7
- MIC (S. aureus ATCC 33592; [3]): 25 µg/mL
- MIC (S. aureus ATCC 33592; LYM broth, 0.5 mM MgCl2): 25 µg/mL
- MIC (S. aureus ATCC 33592; LYM broth, 1.5 mM MgCl2): 25 µg/mL
- MIC (S. aureus ATCC 33592; LYM broth, 2.5 mM MgCl2): 25 µg/mL
- MIC (S. aureus ATCC 33592; [4]): 25 µg/mL
- MIC (S. aureus ATCC 33592; [5]): 50 µg/mL
- MIC (S. aureus ATCC 33592; [6]): >50 µg/mL
- MIC (S. aureus ATCC 33592; [7]): >50 µg/mL
- MIC (S. aureus ATCC 33592; LYM broth, pH 4.5): 25 µg/mL
- MIC (S. aureus ATCC 33592; LYM broth, pH 5.5): 25 µg/mL
- MIC (S. aureus ATCC 33592; LYM broth, pH 6.5): 12.5 µg/mL
- MIC (S. aureus ATCC 33592; [8]): >50 µg/mL
- GM G+ (geometric mean of the MIC values) (Gram-positive bacteria): 66.0 µg/mL
- Therapeutic Index (TI) G+ (Gram-positive bacteria): 1.6
